Earlier results in US12178814B2, “Pharmaceutical composition” (ASTELLAS PHARMA INC., priority 2019, dated 2024).

Test system: EML4 (Echinoderm microtubule associated protein like-4)-ALK (Anaplastic lymphoma kinase) fusion protein
Details: reported in WO2010/128659, WO2017/006855

inhibitory activity of a kinase activity of EML4-ALK fusion protein: inhibitory activity
Compound: CCc1nc(C(N)=O)c(Nc2ccc(N3CCC(N4CCN(C)CC4)CC3)c(OC)c2)nc1NC1CCOCC1 [gilteritinib, 6-Ethyl-3-{3-methoxy-4-[4-(4-methylpiperazin-1-yl)piperidin-1-yl]anilino}-5-[(oxan-4-yl)amino]pyrazine-2-carboxamide]
